{
  "source": "patent US20250032483A1",
  "about": "“COMPOSITIONS AND METHODS FOR TREATING PAIN” (ICAHN SCHOOL OF MEDICINE AT MOUNT SINAI, priority 2021, published 2025)",
  "key": {"[1]": {"tested_on": "CFA model of peripheral inflammation in female mice", "assay": "Hargreaves' thermal beam assay, CFA model", "format": "in vivo", "details": "5 mg/kg i.p. QD, vs saline", "method": "(§1) The inventors used the CFA model of peripheral inflammation in female mice to determine the impact of ILF3 inhibition in sensory hypersensitivity behaviors associated with inflammatory pain states. […] To identify any immediate analgesic effects of YM155 under local, peripheral inflammation conditions, the inventors first tested CFA-injected mice in the Von Frey and Hargreave's assays at 30 minutes post-drug administration.\n(§2) The inventors also tested whether YM155 had sustained effects on sensory hypersensitivity after the expected window of activity (approximately 24 hours post-injection, based on a ˜one hour half-life in intravenously-treated mice).\n(§3) For studies using models of peripheral inflammation, two-to three-month old mice received 30 μL left hindpaw injections of Complete Freund's Adjuvant (CFA: diluted 1:1 in saline) or IFNB injections (300 U per 25 μL), as described previously. For studies using the post-operative incision model, two-to three-month-old mice received an incision from the posterior plantar surface of the hindpaw to the middle of the paw pads, in which dermis and superficial muscle was cut and dermis was sutured afterwards. […]\nThe CFA model induces thermal hypersensitivity for 10-14 days on average. […] Three measurements were recorded and averaged for each hindpaw, with each measurement taking place at least two minutes apart."}, "[2]": {"tested_on": "interferon-induced mechanical hypersensitivity in mice", "assay": "Von Frey assay, hindpaw IFNβ injection model", "format": "in vivo", "from_the_text": "While the CFA model promotes both peripheral interferon and cytokine signaling. the inventors wanted to investigate the role of ILF3 inhibition in a model of isolated interferon signaling to better understand its role in virus-induced hypersensitivity. For this, the inventors implemented hindpaw interferon β (IFNβ) injections. The inventors compared mechanical thresholds between a group of female mice that received no IFNβ injection and daily saline (Naïve-Saline), a group that received a single IFNβ injection and daily saline (IFNβ-Saline). and a group that received a single IFNβ injection and immediate daily administration of YM155 (5 mg/kg i.p. BID: IFNβ-YM155). […] The inventors therefore performed an experiment in which a Naïve-Saline and IFNβ-Saline group began receiving YM155 (2.5 mg/kg i.p. BID) after mechanical thresholds were taken one day after intraplantar injections. […] ILF3 inhibition is effective at suppressing interferon-induced hypersensitivity in both mouse sexes. […]\n(§4) Hamsters/mice were placed on a raised grid platform in plastic containers and were allowed to habituate to their environment for a minimum of 10 minutes. Afterwards, filaments of ascending forces were applied to the left hindpaw and responses were recorded. […] Progression to the next filament was determined by recording of positive or negative responses for three out of five applications with each filament. […]"}, "paw incision model mice [3]": {"tested_on": "paw incision model mice", "assay": "Von Frey assay, paw incision model (pre-treatment)", "format": "in vivo", "details": "pre-treatment 5 mg/kg i.p. for seven days; no drug after incision; vs saline", "method": "(§5) The inventors also tested whether YM155 could be used to prophylactically reduce pain experienced after acute post-operative injuries. For this, the inventors used the paw incision model and pre-treated animals at a dose of 5 mg/kg i.p, for seven days. Animals were not treated with drug after the incision.\nas §3, §4"}, "mice": {"tested_on": "mice", "assay": "Toxicity observed on dosing in mice", "format": "in vivo"}, "paw incision model mice [4]": {"tested_on": "paw incision model mice", "assay": "Locomotor activity after paw incision", "format": "in vivo", "details": "Day 1 post-paw incision; YM155 vs saline", "method": "as §5"}, "[5]": {"details": "intravenously-treated mice; cited from earlier work"}, "[6]": {"assay": "Body weight during YM155 administration, CFA model", "format": "in vivo, mice", "details": "5 mg/kg i.p. QD; first 9 days of treatment", "method": "as §2\nFor studies using models of peripheral inflammation, two-to three-month old mice received 30 μL left hindpaw injections of Complete Freund's Adjuvant (CFA: diluted 1:1 in saline) or IFNB injections (300 U per 25 μL), as described previously. For studies using the post-operative incision model, two-to three-month-old mice received an incision from the posterior plantar surface of the hindpaw to the middle of the paw pads, in which dermis and superficial muscle was cut and dermis was sutured afterwards. CFA and paw incision groups of mice received daily intraperitoneal (i.p.) injections of saline (vehicle) or YM155 (Tocris Biosciences), an Interleukin Enhancer Binding Factor 3 (ILF3) inhibitor (2.5 or 5 mg/kg diluted in saline)."}, "[7]": {"tested_on": "CFA model of peripheral inflammation in female mice", "assay": "Von Frey assay, CFA model", "format": "in vivo", "details": "5 mg/kg i.p. QD, vs saline", "method": "as §1, §2\nFor studies using models of peripheral inflammation, two-to three-month old mice received 30 μL left hindpaw injections of Complete Freund's Adjuvant (CFA: diluted 1:1 in saline) or IFNB injections (300 U per 25 μL), as described previously. […]\nas §4"}, "[8]": {"details": "CFA-injected female mice, 30-60 minutes after administration"}},
  "note": "Entries after “also recorded” stand apart in the source; their conditions may differ.",
  "data": [
    {"smiles": "COCCn1c2c([n+](Cc3cnccn3)c1C)C(=O)c1ccccc1C2=O", "note": "[YM155]", "values": [
      {"measurement": "thermal thresholds / Hargreaves' withdrawal latency, sustained", "setting": "[1]; CFA mice, ~24 hours post-injection, six consecutive days of administration (PD-D6)", "result": "increased thermal thresholds in a sustained fashion; also recorded: significantly higher withdrawal latency"},
      {"measurement": "thermal thresholds / Hargreaves' response times", "setting": "[1]; [8]", "result": "increased thermal thresholds; also recorded: increased Hargreaves' response times"},
      {"measurement": "interferon-induced mechanical hypersensitivity (mechanical thresholds)", "setting": "[2]; female mice, hindpaw IFNβ 300U/25 μL, concurrent YM155 5 mg/kg i.p., days 1 and 3 after IFNβ, 5 mg/kg", "result": "interrupted the onset of interferon-induced mechanical hypersensitivity; also recorded: no change in thresholds"},
      {"measurement": "mechanical thresholds, IFNβ group", "setting": "[2]; male mice, 2.5 mg/kg i.p. BID started one day after intraplantar injection, by day three", "result": "substantial increase in mechanical thresholds"},
      {"measurement": "mechanical hypersensitivity after paw incision", "setting": "paw incision model mice [3]", "result": "significantly lower mechanical hypersensitivity after paw incision; also recorded: significant reduction in mechanical hypersensitivity"},
      {"measurement": "toxicity", "setting": "mice; female mice, 20 mg/kg", "result": "lethal toxicity"},
      {"measurement": "toxicity", "setting": "mice; male mice, 2.5 mg/kg i.p. BID", "result": "did not observe toxicity"},
      {"measurement": "toxicity", "setting": "mice; male mice, 5 mg/kg dose", "result": "increased sensitivity to the drug and subsequent toxicity"},
      {"measurement": "locomotion / locomotor activity", "setting": "paw incision model mice [4]", "result": "No differences in locomotion were observed; also recorded: no changes in locomotor activity"},
      {"measurement": "half-life", "setting": "[5]", "result": "one"},
      {"measurement": "post-CFA weight", "setting": "[6]", "result": "No changes in post-CFA weight were observed"},
      {"measurement": "mechanical thresholds (von Frey), sustained", "setting": "[7]; CFA mice, ~24 hours after administration, PD-D5, PD-D7, PD-D9", "result": "increased mechanical thresholds in a sustained fashion; also recorded: sustained recovery of mechanical thresholds"},
      {"measurement": "mechanical (von Frey) thresholds", "setting": "[7]; [8]", "result": "increased mechanical thresholds; also recorded: increased von Frey thresholds"}
    ]}
  ]
}
